Source: patent US6486174B2, “Tetrahydroisoquinoline-3-carboxylic acid alkoxyguanidines as integrin antagonists” (3-Dimensional Pharmaceuticals, Inc., priority 2000, dated 2002)
Where a name gives a salt, the structure may show the parent alone.

Each compound was assayed against T1, human αvβ3 (Homo sapiens, UniProt P05106+P06756) (assay: αvβ3-vitronectin assay (ELISA, inhibition of biotinylated vitronectin binding)). Conditions: plate-coated human αvβ3, biotinylated human vitronectin 0.5 μg/mL, room temperature; read-out: αvβ3 IC50 (Inhibition of the αvβ3-Vitronectin Interaction).
T1 construct: purchased Chemicon CC1019
T1 sequence (P06756 31-889 limits assumed): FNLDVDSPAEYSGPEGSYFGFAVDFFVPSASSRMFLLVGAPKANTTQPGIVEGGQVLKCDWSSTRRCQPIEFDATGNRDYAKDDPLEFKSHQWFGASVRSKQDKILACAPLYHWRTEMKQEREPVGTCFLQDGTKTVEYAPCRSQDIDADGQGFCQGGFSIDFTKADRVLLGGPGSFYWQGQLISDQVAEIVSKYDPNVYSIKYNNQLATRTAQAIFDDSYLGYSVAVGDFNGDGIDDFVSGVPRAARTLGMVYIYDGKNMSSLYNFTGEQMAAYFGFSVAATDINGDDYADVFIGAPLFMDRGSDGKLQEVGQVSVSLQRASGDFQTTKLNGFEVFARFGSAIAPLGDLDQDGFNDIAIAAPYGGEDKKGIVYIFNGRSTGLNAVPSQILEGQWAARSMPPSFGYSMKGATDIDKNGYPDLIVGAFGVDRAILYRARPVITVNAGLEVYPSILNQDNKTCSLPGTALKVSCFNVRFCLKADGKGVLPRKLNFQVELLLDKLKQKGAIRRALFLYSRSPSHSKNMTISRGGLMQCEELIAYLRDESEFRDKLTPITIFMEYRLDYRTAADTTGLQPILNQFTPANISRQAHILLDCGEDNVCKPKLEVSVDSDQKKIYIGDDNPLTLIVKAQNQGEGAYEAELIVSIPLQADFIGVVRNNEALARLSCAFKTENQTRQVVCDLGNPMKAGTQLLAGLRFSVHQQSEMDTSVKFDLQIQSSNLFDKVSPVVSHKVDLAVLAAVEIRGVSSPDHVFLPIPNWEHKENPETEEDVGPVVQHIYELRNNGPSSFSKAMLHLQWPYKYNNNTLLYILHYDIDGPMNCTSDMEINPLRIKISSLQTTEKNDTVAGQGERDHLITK
T1 sequence (P06756 891-1048 partner limits assumed): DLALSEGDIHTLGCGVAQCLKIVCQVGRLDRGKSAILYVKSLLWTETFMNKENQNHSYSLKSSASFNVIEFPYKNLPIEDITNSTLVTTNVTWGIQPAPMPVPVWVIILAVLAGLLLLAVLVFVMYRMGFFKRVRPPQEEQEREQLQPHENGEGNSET
T1 sequence (P05106 27-788): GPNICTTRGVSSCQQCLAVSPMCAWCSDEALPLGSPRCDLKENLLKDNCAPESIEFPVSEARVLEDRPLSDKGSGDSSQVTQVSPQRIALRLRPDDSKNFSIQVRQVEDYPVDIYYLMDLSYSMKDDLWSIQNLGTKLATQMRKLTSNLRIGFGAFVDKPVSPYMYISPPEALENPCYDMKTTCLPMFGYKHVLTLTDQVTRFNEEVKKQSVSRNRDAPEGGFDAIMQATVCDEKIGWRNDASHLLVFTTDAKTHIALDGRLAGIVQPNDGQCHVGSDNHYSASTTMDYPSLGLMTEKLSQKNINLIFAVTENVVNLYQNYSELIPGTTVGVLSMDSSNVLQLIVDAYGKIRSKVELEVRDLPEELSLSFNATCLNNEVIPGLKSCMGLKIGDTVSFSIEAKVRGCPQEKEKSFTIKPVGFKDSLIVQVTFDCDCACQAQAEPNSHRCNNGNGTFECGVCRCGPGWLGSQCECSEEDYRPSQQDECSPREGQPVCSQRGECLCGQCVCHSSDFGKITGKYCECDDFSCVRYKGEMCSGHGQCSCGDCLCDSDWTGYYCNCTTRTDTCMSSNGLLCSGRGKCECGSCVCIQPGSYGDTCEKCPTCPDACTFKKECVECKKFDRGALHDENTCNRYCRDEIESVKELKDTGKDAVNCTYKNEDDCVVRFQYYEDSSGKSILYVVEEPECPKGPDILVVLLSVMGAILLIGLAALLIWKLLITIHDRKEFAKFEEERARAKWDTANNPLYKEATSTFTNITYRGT
Protocol: The assay was based on the method of Niiya (Niiya, K., et al, Blood 70:475-483 (1987)). All the steps were performed at room temperature. Costar 9018 flat-bottom 96-well ELISA plates were coated overnight with 100 μL/well of 0.4 μg/mL human αvβ3 (Chemicon CC1019) in TS buffer (20 mM Tris-HCl pH 7.5, 150 mM NaCl, 1 mM CaCl2, 1 mM MgCl2, 1 mM MnCl2). Plates were blocked for 2 hours with 200 μL/well of TS buffer containing 1% BSA (TSB buffer), and washed 3 times with 200 μL/well of PBST buffer. Controls or test compound were mixed with 0.5 μg/mL of human vitronectin (Chemicon CC080) that had been biotinylated in-house with sulfo-NHS-LC-LC-biotin (Pierce 21338, 20:1 molar ratio), and 100 μL/well of these solutions (in TSB buffer) were incubated for 2 hours. The plate was then washed 5 times with PBST buffer, and 100 μL/well of 0.25 μg/mL NeutrAvidin-horseradish peroxidase conjugate (Pierce 31001) in TSB buffer was incubated for 1 hour. Following a 5-fold PBST buffer wash, the plate was developed by adding 100 μL/well of 0.67 mg o-phenylenediamine dihydrochloride per mL of 0.012% H2O2, 22 mM sodium citrate, 50 mM sodium phosphate, pH 5.0 at room temperature. The reaction was stopped with 50 μL/well of 2M H2SO4, and the absorbence at 492 nm was recorded. Percent (%) inhibition was calculated from the average of two separate determinations relative to buffer controls (no test compound added), and a four parameter fit (Marquardt, D. W., J. Soc. Indust. Appl. Math. 11:431-441 (1963)) was used to estimate the half maximal inhibition concentration (IC50).
In the case of `N=C(N)NOCCCOc1ccc2c(c1)CN(S(=O)(=O)c1ccc3ccccc3c1)[C@H](C(=O)O)C2` [Example 3, (3S)-7-[3-(Amidinoaminooxy)propoxy]-2-(2-naphthylsulfonyl)-1,2,3,4-tetrahydroisoquinoline-3-carboxylic Acid Trifluoroacetic Acid Salt], the IC50 is reported as 500 nM. Work on `COc1ccc(OC)c(S(=O)(=O)N2Cc3cc(OCCCONC(=N)N)ccc3C[C@H]2C(=O)O)c1` [Example 1, (3S)-7-[3-(Amidinoaminooxy)propoxy]-2-[(2,5-dimethoxyphenyl)sulfonyl]-1,2,3,4-tetrahydroisoquinoline-3-carboxylic acid trifluoroacetic Acid Salt] yielded an IC50 of 73 nM. `N=C(N)NOCCCOc1ccc2c(c1)CN(S(=O)(=O)c1ccccc1)[C@H](C(=O)O)C2` [Example 2, (3S)-7-[3-(Amidinoaminooxy)propoxy]-2-(phenylsulfonyl)-1,2,3,4-tetrahydroisoquinoline-3-carboxylic Acid Trifluoroacetic Acid Salt] gave an IC50 of 1100 nM.
